{
  "source": "patent US20120277180A1",
  "about": "“Cofactors and Methods for Use for Individuals” (VITAPATH GENETICS, INC, priority 2009, published 2012)",
  "key": {"[1]": {"conditions": "upper level of intake considered safe for adults; cited from earlier work"}, "[2]": {"tested_on": "human MTHFR", "assay": "Thermolability of MTHFR variants (heat treatment at 55° C. before enzyme assay)", "format": "biochemical", "protocol": "MTHFR enzyme activity assay. The assay, which measures the reverse reaction of that catalyzed by MTHFR under physiological conditions, was as described (Shan et al, 1999, supra) with the following modifications: Yeast extracts were created by bead lysis of 40 CD595 cell equivalents (fol3Δ met13Δ cells supplemented with folinic acid and methionine as above) in 350 ul of Lysis Buffer (100 mM Sucrose, 50 mM KHPO4 (pH 6.3), protease inhibitor cocktail). Extracts were clarified by a brief microcentrifugation, and 10-200 ug of extract used to determine the linear range of activity. Radiolabeled substrate (5-[^14C]MeTHF) was from GE Healthcare Life Sciences. For heat treatment, the reaction mixes without 5-[^14C]MeTHF were heated to 55° C. for the indicated times at which point 5-[^14C]MeTHF was added back and the reaction proceeded.\nIn addition to measuring specific activity, variants were tested for thermolability (a measure of enzyme stability) by heat treatment at 55° C. for various times."}, "[3]": {"tested_on": "human MTHFR", "assay": "In vivo yeast complementation growth assay: MTHFR alleles in fol3 met13 haploid yeast, growth without methionine with titrated folinic acid", "format": "cell-based", "conditions": "for Functional impact / folate-responsiveness of MTHFR allele (growth in the absence of methionine): over a range of folinic acid concentrations, relative to the major allele; for Interaction of substitutions in compound (double-substitution) alleles with A222V: growth at 50 and 25 ug/ml folinic acid"}, "[4]": {"molecular_target": "T1, human MTHFR (Homo sapiens, UniProt P42898)", "T1 construct": "expressed in transfected cells; host or cells: Saccharomyces cerevisiae fol3Δ::KanMX met13Δ::KanMX (S288c background), GAL1 promoter", "T1 sequence (P42898 whole entry)": "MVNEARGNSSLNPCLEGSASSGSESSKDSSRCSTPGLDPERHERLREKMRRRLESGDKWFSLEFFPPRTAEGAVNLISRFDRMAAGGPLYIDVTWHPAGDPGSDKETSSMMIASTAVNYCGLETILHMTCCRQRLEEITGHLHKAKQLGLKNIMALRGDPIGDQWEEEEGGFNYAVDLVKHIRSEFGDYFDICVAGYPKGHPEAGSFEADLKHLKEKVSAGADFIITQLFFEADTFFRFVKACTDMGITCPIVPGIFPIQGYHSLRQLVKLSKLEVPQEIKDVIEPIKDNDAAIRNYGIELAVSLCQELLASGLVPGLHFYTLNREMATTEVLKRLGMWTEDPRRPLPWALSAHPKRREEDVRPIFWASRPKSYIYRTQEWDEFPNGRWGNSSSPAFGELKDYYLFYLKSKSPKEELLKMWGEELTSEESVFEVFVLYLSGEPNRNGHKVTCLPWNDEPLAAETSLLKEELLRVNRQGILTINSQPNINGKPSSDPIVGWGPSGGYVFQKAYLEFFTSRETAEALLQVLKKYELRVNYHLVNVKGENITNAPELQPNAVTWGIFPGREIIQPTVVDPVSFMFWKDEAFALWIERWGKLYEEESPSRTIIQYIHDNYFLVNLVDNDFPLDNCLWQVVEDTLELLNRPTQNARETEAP", "assay": "In vivo yeast complementation growth assay: MTHFR alleles in fol3 met13 haploid yeast, growth without methionine with titrated folinic acid", "format": "cell-based", "conditions": "folinic acid above 50 ug/ml; fol3 met13 cells"}, "[5]": {"tested_on": "fol3Δ::KanMX MET13 haploid yeast", "format": "cell-based, S. cerevisiae", "conditions": "for Effect of folinic acid supplementation on growth: fol3Δ MET13 cells"}, "[6]": {"tested_on": "human CBS", "assay": "Yeast complementation assay for CBS as a function of pyridoxine (cys4, sno/snz sextuple-delete strain)", "format": "cell-based", "conditions": "qualitative growth on solid media"}},
  "note": "“Also recorded” adds a separate entry of the source. Like-named read-outs stand apart in the source and are kept apart here.",
  "data": [
    {"molecule": "O=C1O[C@H]([C@@H](O)CO)C(O)=C1O", "note": "[Vitamin C]", "values": [
      {"measurement": "UL (Upper Limit)", "setting": "[1]", "result": 2000, "unit": "mg"}
    ]},
    {"molecule": "A222V: common functionally impaired human MTHFR variant, catalytic domain substitution A222V", "values": [
      {"measurement": "Thermolability", "setting": "[2]", "result": "lost nearly all activity"},
      {"measurement": "Functional impact / folate-responsiveness of MTHFR allele (growth in the absence of methionine)", "setting": "[3]", "result": "folate-remedial behavior"}
    ]},
    {"molecule": "R519C: low-frequency human MTHFR variant, regulatory domain substitution R519C", "values": [
      {"measurement": "Functional impact / folate-responsiveness of MTHFR allele (growth in the absence of methionine)", "setting": "[3]", "result": "benign"}
    ]},
    {"molecule": "M110I: low-frequency human MTHFR variant, catalytic domain substitution M110I", "values": [
      {"measurement": "MTHFR function (growth) relative to the major allele", "setting": "[3]; 50 ug/ml folinic acid", "result": "nearly indistinguishable from the major allele"},
      {"measurement": "Interaction of substitutions in compound (double-substitution) alleles with A222V", "setting": "[3]", "result": "synergized when combined with A222V"},
      {"measurement": "Functional impact / folate-responsiveness of MTHFR allele (growth in the absence of methionine)", "setting": "[3]", "result": "folate-remedial behavior"},
      {"measurement": "Functional impact / folate-responsiveness of MTHFR allele (growth in the absence of methionine)", "setting": "[3]; listed as MilOl", "result": "folate-remedial activity similar to A222V (though less severely impaired)"}
    ]},
    {"molecule": "M110I A222V: doubly-substituted compound human MTHFR allele", "values": [
      {"measurement": "Interaction of substitutions in compound (double-substitution) alleles with A222V", "setting": "[3]", "result": "functioned more poorly than the sum of the individual alleles"}
    ]},
    {"molecule": "C[N+](C)(C)CCO", "note": "[Choline]", "values": [
      {"measurement": "UL (Upper Limit)", "setting": "[1]", "result": 3500, "unit": "mg"}
    ]},
    {"molecule": "D291N: low-frequency human MTHFR variant, catalytic domain substitution D291N", "values": [
      {"measurement": "Interaction of substitutions in compound (double-substitution) alleles with A222V", "setting": "[3]", "result": "synergized when combined with A222V"},
      {"measurement": "Functional impact / folate-responsiveness of MTHFR allele (growth in the absence of methionine)", "setting": "[3]", "result": "folate-remedial behavior"}
    ]},
    {"molecule": "H213R: low-frequency human MTHFR variant, catalytic domain substitution H213R", "values": [
      {"measurement": "Functional impact / folate-responsiveness of MTHFR allele (growth in the absence of methionine)", "setting": "[3]", "result": "benign"}
    ]},
    {"molecule": "R134C: low-frequency human MTHFR variant, catalytic domain substitution R134C", "values": [
      {"measurement": "Functional impact / folate-responsiveness of MTHFR allele (growth in the absence of methionine)", "setting": "[3]", "result": "severely impaired at all folate concentrations; also recorded: responsive, but not a remedial allele; also recorded: nearly loss-of-function"}
    ]},
    {"molecule": "D223N: novel low-frequency human MTHFR variant, catalytic domain substitution D223N", "values": [
      {"measurement": "Thermolability", "setting": "[2]", "result": "increased thermolability"},
      {"measurement": "Functional impact / folate-responsiveness of MTHFR allele (growth in the absence of methionine)", "setting": "[3]", "result": "folate-remedial activity similar to A222V (though less severely impaired); also recorded: folate-remedial behavior"}
    ]},
    {"molecule": "major allele: most common human MTHFR allele in the population, expressed in yeast", "values": [
      {"measurement": "Functional impact / folate-responsiveness of MTHFR allele (growth in the absence of methionine)", "setting": "[3]", "result": "did not completely compensate for loss of Met13p"}
    ]},
    {"molecule": "5-formyl-tetrahydrofolate [folinic acid]", "values": [
      {"measurement": "Effect of folinic acid supplementation on growth of cells expressing the major human MTHFR allele", "setting": "[4]", "result": "did not confer a significant growth advantage"},
      {"measurement": "Folinic acid supplementation compared to growth of FOL3 cells", "setting": "[5]; fol3Δ cells vs FOL3 cells", "result": "did not completely compensate for lack of endogenous folate biosynthesis"},
      {"measurement": "Effect of folinic acid supplementation on growth", "setting": "[5]; folinic acid above 50 ug/ml", "result": "did not confer any significant growth advantage"},
      {"measurement": "Effect of folinic acid supplementation on growth", "setting": "[5]; folinic acid below 50 ug/ml", "result": "growth clearly correlated with available folinic acid in the medium"}
    ]},
    {"molecule": "Vitamin B-6", "values": [
      {"measurement": "UL (Upper Limit)", "setting": "[1]", "result": 100, "unit": "mg"}
    ]},
    {"molecule": "O=C(O)c1cccnc1", "note": "[Niacin]", "values": [
      {"measurement": "UL (Upper Limit)", "setting": "[1]", "result": 35, "unit": "mg"}
    ]},
    {"molecule": "1278T: homocystinuria allele of human CBS, vitamin B6-responsive (protein, UniProt P35520 1-551, looked up, variant I278T) Cystathionine beta-synthase: MPSETPQAEVGPTGCPHRSGPHSAKGSLEKGSPEDKEAKEPLWIRPDAPSRCTWQLGRPASESPHHHTAPAKSPKILPDILKKIGDTPMVRINKIGKKFGLKCELLAKCEFFNAGGSVKDRISLRMIEDAERDGTLKPGDTIIEPTSGNTGIGLALAAAVRGYRCIIVMPEKMSSEKVDVLRALGAEIVRTPTNARFDSPESHVGVAWRLKNEIPNSHILDQYRNASNPLAHYDTTADEILQQCDGKLDMLVASVGTGGTITGIARKLKEKCPGCRITGVDPEGSILAEPEELNQTEQTTYEVEGIGYDFIPTVLDRTVVDKWFKSNDEEAFTFARMLIAQEGLLCGGSAGSTVAVAVKAAQELQEGQRCVVILPDSVRNYMTKFLSDRWMLQKGFLKEEDLTEKKPWWWHLRVQELGLSAPLTVLPTITCGHTIEILREKGFDQAPVVDEAGVILGMVTLGNMLSSLLAGKVQPSDQVGKVIYKQFKQIRLTDTLGRLSHILEMDHFALVVHEQIQYHSTGKSSQRQMVFGVVTAIDLLNFVAAQERDQK", "values": [
      {"measurement": "Rescue of cys4 yeast growth defect as a function of pyridoxine supplementation", "setting": "[6]", "result": "more sensitive than the wild-type enzyme to limiting B6 levels"}
    ]},
    {"molecule": "R266K: homocystinuria allele of human CBS, vitamin B6-responsive (protein, UniProt P35520 1-551, looked up, variant R266K) Cystathionine beta-synthase: MPSETPQAEVGPTGCPHRSGPHSAKGSLEKGSPEDKEAKEPLWIRPDAPSRCTWQLGRPASESPHHHTAPAKSPKILPDILKKIGDTPMVRINKIGKKFGLKCELLAKCEFFNAGGSVKDRISLRMIEDAERDGTLKPGDTIIEPTSGNTGIGLALAAAVRGYRCIIVMPEKMSSEKVDVLRALGAEIVRTPTNARFDSPESHVGVAWRLKNEIPNSHILDQYRNASNPLAHYDTTADEILQQCDGKLDMLVASVGTGGTITGIAKKLKEKCPGCRIIGVDPEGSILAEPEELNQTEQTTYEVEGIGYDFIPTVLDRTVVDKWFKSNDEEAFTFARMLIAQEGLLCGGSAGSTVAVAVKAAQELQEGQRCVVILPDSVRNYMTKFLSDRWMLQKGFLKEEDLTEKKPWWWHLRVQELGLSAPLTVLPTITCGHTIEILREKGFDQAPVVDEAGVILGMVTLGNMLSSLLAGKVQPSDQVGKVIYKQFKQIRLTDTLGRLSHILEMDHFALVVHEQIQYHSTGKSSQRQMVFGVVTAIDLLNFVAAQERDQK", "values": [
      {"measurement": "Rescue of cys4 yeast growth defect as a function of pyridoxine supplementation", "setting": "[6]", "result": "more sensitive than the wild-type enzyme to limiting B6 levels"}
    ]}
  ]
}
